The text below walks through data of patent US20140303164A1, “THERAPEUTIC COMPOUNDS” (Gilead Sciences, Inc., priority 2013, published 2014).

Molecules are shown by their SMILES. Where only a bound is given, the exact number is not on record here.

The subject of one series is HIV-IIIb. As to the kind of experiment: Test A: Antiviral Assay in MT4 Cells. The class given is cell-based, HIV-1. The note with it: for % inhibition at 0.2 μM: percent inhibition of virus-induced cell killing at 0.2 μM drug concentration; for % inhibition at 0.2 μM / % inhibition at 2 μM: from dose response curve, MT-4 cells, HIV-IIIb, 5 days, values above 100 normalized to 100; for % inhibition at 2 μM: percent inhibition of virus-induced cell killing at 2 μM drug concentration; for inhibition at 0.2 µM / inhibition at 2 µM: Human immunodeficiency virus 1, IIIB, MT4, 120 h; for inhibition at 0.2 µM: read-out: % inhibition at 0.2 μM; for inhibition at 2 µM: read-out: % inhibition at 2 μM. As to the method:
Test A: Antiviral Assay in MT4 Cells
MT-4 cells were next mixed with HIV-IIIb at an m.o.i of 0.003 for 1 hour, after which time 35 μL of virus/cell mixture (2000 cells) was immediately added to each well containing 40 μL of diluted compound. The plates were then incubated at 37° C. for 5 days. […] Cell lysis was carried out by incubating at room temperature for 10 min and then chemiluminescence was read.

Another series deals with uninfected MT-4 cells. The experiment in a line: Test B: Cytotoxicity Assay. The series is classed as cell-based. The note with it: same protocol as Test A, 5 days. Summed up:
(§1)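 Uninfected MT-4 cells (2000 per well) incubated with diluted compound at 37° C. for 5 days, following the antiviral protocol without HIV-IIIb.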

A short description of series [1]: Test B: Cytotoxicity Assay. The series is classed as cell-based. The note with it: human, uninfected MT-4 cells, same protocol as Test A. Summed up:
as §1

On to `Cc1ccc(-c2ccc(C#CC(C)(C)O)nc2[C@H](Cc2cc(F)cc(F)c2)NC(=O)Cn2nc(C(F)F)c3c2C(F)(F)[C@@H]2C[C@H]32)c2c1c(NS(N)(=O)=O)nn2C` [Compound 71, 2-((3b-S,4aR)-3-(difluoromethyl)-5,5-difluoro-3b,4,4a,5-tetrahydro-1H-cyclopropa[3,4]cyclopenta[1,2-c]pyrazol-1-yl)-N—((S)-2-(3,5-difluorophenyl)-1-(3-(1,4-dimethyl-3-(sulfamoylamino)-1H-indazol-7-yl)-6-(3-hydroxy-3-methylbut-1-yn-1-yl)pyridin-2-yl)ethyl)acetamide], for which, in the series with HIV-IIIb, the “% inhibition at 0.2 μM” value came to 87% and the “% inhibition at 2 μM” value was 87%. Further, in the series with uninfected MT-4 cells, it took 9.51 µM to reach half-maximal cytotoxicity (CC50).

For `CCC(O)C#Cc1ccc(-c2ccc(Cl)c3c(NS(C)(=O)=O)nn(C)c23)c([C@H](Cc2cc(F)cc(F)c2)NC(=O)Cn2nc(C(F)(F)F)c3c2C(F)(F)[C@@H]2C[C@H]32)n1` (stereo partly drawn) [Compound 145, N-((1S)-1-(3-(4-chloro-1-methyl-3-(methylsulfonamido)-1H-indazol-7-yl)-6-(3-hydroxypent-1-yn-1-yl)pyridin-2-yl)-2-(3,5-difluorophenyl)ethyl)-2-((3b-S,4aR)-5,5-difluoro-3-(trifluoromethyl)-3b,4,4a,5-tetrahydro-1H-cyclopropa[3,4]cyclopenta[1,2-c]pyrazol-1-yl)acetamide], in the series with HIV-IIIb, the “% inhibition at 0.2 μM” value came to 99% and the “% inhibition at 2 μM” value is on record as 99%. In the series on uninfected MT-4 cells, this compound yielded a CC50 of 8.69 µM.

Consider `CC(C)(O)C#Cc1ccc(-c2cccc3c(N)n[nH]c23)c([C@H](Cc2cc(F)cc(F)c2)NC(=O)Cn2nc(C(F)(F)F)c3c2C(F)(F)[C@@H]2C[C@H]32)n1` [Compound 29B, N—((S)-1-(3-(3-amino-1H-indazol-7-yl)-6-(3-hydroxy-3-methylbut-1-yn-1-yl)pyridin-2-yl)-2-(3,5-difluorophenyl)ethyl)-2-((3b-S,4aR)-5,5-difluoro-3-(trifluoromethyl)-3b,4,4a,5-tetrahydro-1H-cyclopropa[3,4]cyclopenta[1,2-c]pyrazol-1-yl)acetamide], for which, in the series with HIV-IIIb, the “% inhibition at 0.2 μM” value was 80% and the “% inhibition at 2 μM” value is listed as 81%. The CC50 in the series on uninfected MT-4 cells amounted to 15.3 µM.

For the compound `Cn1nc(NS(C)(=O)=O)c2cccc(-c3ccc(C#C[C@@H](N)CO)nc3[C@H](Cc3cc(F)cc(F)c3)NC(=O)Cn3nc(C(F)(F)F)c4c3C(F)(F)[C@@H]3C[C@H]43)c21` [Compound 59B, N—((S)-1-(6-((R)-3-amino-4-hydroxybut-1-yn-1-yl)-3-(1-methyl-3-(methylsulfonamido)-1H-indazol-7-yl)pyridin-2-yl)-2-(3,5-difluorophenyl)ethyl)-2-((3b-S,4aR)-5,5-difluoro-3-(trifluoromethyl)-3b,4,4a,5-tetrahydro-1H-cyclopropa[3,4]cyclopenta[1,2-c]pyrazol-1-yl)acetamide], in the series with HIV-IIIb, the “% inhibition at 0.2 μM” value turned out to be 94% and the “% inhibition at 2 μM” value came out at 94%. The compound also displayed a CC50 with uninfected MT-4 cells of 22.4 µM.

For the compound `Cn1cc(-c2ccc(-c3ccc(Cl)c4c(NS(C)(=O)=O)nn(C)c34)c([C@H](Cc3cc(F)cc(F)c3)NC(=O)Cn3nc(C(F)(F)F)c4c3C(F)(F)[C@@H]3C[C@H]43)n2)cn1` [Compound 173, N—((S)-1-(3-(4-chloro-1-methyl-3-(methylsulfonamido)-1H-indazol-7-yl)-6-(1-methyl-1H-pyrazol-4-yl)pyridin-2-yl)-2-(3,5-difluorophenyl)ethyl)-2-((3b-S,4aR)-5,5-difluoro-3-(trifluoromethyl)-3b,4,4a,5-tetrahydro-1H-cyclopropa[3,4]cyclopenta[1,2-c]pyrazol-1-yl)acetamide], in the series on HIV-IIIb, the “% inhibition at 0.2 μM” value was determined as 92% and the “% inhibition at 2 μM” value was 92%. This compound registered a CC50 with uninfected MT-4 cells of over 43.7 µM.

In the case of `COc1cc(-c2ccc(Cl)c3c(NS(C)(=O)=O)nn(C)c23)c([C@H](Cc2cc(F)cc(F)c2)NC(=O)Cn2nc(C(F)(F)F)c3c2C(F)(F)[C@@H]2C[C@H]32)nc1C#CC(C)(C)O` [Compound 135B, N—((S)-1-(3-(4-chloro-1-methyl-3-(methylsulfonamido)-1H-indazol-7-yl)-6-(3-hydroxy-3-methylbut-1-yn-1-yl)-5-methoxypyridin-2-yl)-2-(3,5-difluorophenyl)ethyl)-2-((3b-S,4aR)-5,5-difluoro-3-(trifluoromethyl)-3b,4,4a,5-tetrahydro-1H-cyclopropa[3,4]cyclopenta[1,2-c]pyrazol-1-yl)acetamide], in the series on HIV-IIIb, the “% inhibition at 0.2 μM” value was determined as 93% and the “% inhibition at 2 μM” value is listed as 93%. The CC50 in the series with uninfected MT-4 cells worked out at 14.2 µM.

Turning to `Cn1nc(NS(C)(=O)=O)c2c(Cl)ccc(-c3ccc(-c4ccccn4)nc3[C@H](Cc3cc(F)cc(F)c3)NC(=O)Cn3nc(C(F)(F)F)c4c3C(F)(F)[C@@H]3C[C@H]43)c21` [Compound 172, N—((S)-1-(5-(4-chloro-1-methyl-3-(methylsulfonamido)-1H-indazol-7-yl)-[2,2′-bipyridin]-6-yl)-2-(3,5-difluorophenyl)ethyl)-2-((3b-S,4aR)-5,5-difluoro-3-(trifluoromethyl)-3b,4,4a,5-tetrahydro-1H-cyclopropa[3,4]cyclopenta[1,2-c]pyrazol-1-yl)acetamide], in the series on uninfected MT-4 cells, the midpoint of cytotoxicity, the CC50, lay at 0.061 µM.

In the case of `COc1ccc(-c2ccc(C#CC(C)(C)C)nc2[C@H](Cc2cc(F)cc(F)c2)NC(=O)Cn2nc(C(F)F)c3c2C(F)(F)[C@@H]2C[C@H]32)c2nnc(NS(C)(=O)=O)n12` [Compound 130, 2-((3bS,4aR)-3-(difluoromethyl)-5,5-difluoro-3b,4,4a,5-tetrahydro-1H-cyclopropa[3,4]cyclopenta[1,2-c]pyrazol-1-yl)-N—((S)-2-(3,5-difluorophenyl)-1-(6-(3,3-dimethylbut-1-yn-1-yl)-3-(5-methoxy-3-(methylsulfonamido)-[1,2,4]triazolo[4,3-a]pyridin-8-yl)pyridin-2-yl)ethyl)acetamide], in the series on HIV-IIIb, the inhibition at 0.2 µM turned out to be 80% and the inhibition at 2 µM is 85%. The compound further displayed a CC50 at 5 days in series [1] of 23.2 µM.

As for `Cn1ncc2c(Cl)ccc(-c3ccc(C#CC(C)(C)O)nc3[C@H](Cc3cc(F)cc(F)c3)NC(=O)Cn3nc(C(F)F)c4c3C(F)(F)[C@@H]3C[C@H]43)c21` [Compound 137C, N—((S)-1-(3-(4-chloro-1-methyl-1H-indazol-7-yl)-6-(3-hydroxy-3-methylbut-1-yn-1-yl)pyridin-2-yl)-2-(3,5-difluorophenyl)ethyl)-2-((3b-S,4aR)-3-(difluoromethyl)-5,5-difluoro-3b,4,4a,5-tetrahydro-1H-cyclopropa[3,4]cyclopenta[1,2-c]pyrazol-1-yl)acetamide], in the series on HIV-IIIb, the inhibition at 0.2 µM turned out to be 93% and the inhibition at 2 µM stood at 100%. This compound came in with a CC50 at 5 days in series [1] of 7.88 µM.

`Cn1nc(NS(C)(=O)=O)c2c(Cl)ccc(-c3ccc(C#CC(C)(O)CO)nc3[C@H](Cc3cc(F)cc(F)c3)NC(=O)Cn3nc(C(F)(F)F)c4c3C(F)(F)[C@@H]3C[C@H]43)c21` (stereo partly drawn) [Compound 151, N-((1S)-1-(3-(4-chloro-1-methyl-3-(methylsulfonamido)-1H-indazol-7-yl)-6-(3,4-dihydroxy-3-methylbut-1-yn-1-yl)pyridin-2-yl)-2-(3,5-difluorophenyl)ethyl)-2-((3bS,4aR)-5,5-difluoro-3-(trifluoromethyl)-3b,4,4a,5-tetrahydro-1H-cyclopropa[3,4]cyclopenta[1,2-c]pyrazol-1-yl)acetamide]: in the series on HIV-IIIb, the inhibition at 0.2 µM stood at 92% and the inhibition at 2 µM came to 92%. In series [1], this compound came in with a CC50 at 5 days of 25.3 µM.

With `CC(C)(O)C#Cc1ccc(-c2cccc3c(=O)[nH]ccc23)c([C@H](Cc2cc(F)cc(F)c2)NC(=O)Cn2nc(C(F)(F)F)c3c2C(F)(F)[C@@H]2C[C@H]32)n1` [Compound 24B, 2-((3bS,4aR)-5,5-difluoro-3-(trifluoromethyl)-3b,4,4a,5-tetrahydro-1H-cyclopropa[3,4]cyclopenta[1,2-c]pyrazol-1-yl)-N—((S)-2-(3,5-difluorophenyl)-1-(6-(3-hydroxy-3-methylbut-1-yn-1-yl)-3-(1-oxo-1,2-dihydroisoquinolin-5-yl)pyridin-2-yl)ethyl)acetamide], in the series with HIV-IIIb, the inhibition at 0.2 µM stood at 78% and the inhibition at 2 µM amounted to 83%. Further, half-maximal cytotoxicity in series [1] (CC50 at 5 days) was put at 5.92 µM.

Take `Cn1nc(NS(C)(=O)=O)c2cccc(-c3ccc(C#CC(C)(C)O)nc3[C@H](Cc3cc(F)cc(F)c3)NC(=O)Cn3nc(C(F)(F)F)c4c3C3CC3CO4)c21` (stereo partly drawn) [Compound 67I, N—((S)-2-(3,5-difluorophenyl)-1-(6-(3-hydroxy-3-methylbut-1-yn-1-yl)-3-(1-methyl-3-(methylsulfonamido)-1H-indazol-7-yl)pyridin-2-yl)ethyl)-2-(3-(trifluoromethyl)-5,5a,6,6a-tetrahydro-1H-cyclopropa[4,5]pyrano[3,2-c]pyrazol-1-yl)acetamide]: in the series on HIV-IIIb, the inhibition at 0.2 µM was found to be 94% and the inhibition at 2 µM came out at 94%. Half-maximal cytotoxicity in series [1] (CC50 at 5 days) was put at 21.5 µM.

As to `CC(C)(O)C#Cc1ccc(-c2ccc3n[nH]c(=O)n3c2)c([C@H](Cc2cc(F)cc(F)c2)NC(=O)Cn2nc(C(F)(F)F)c3c2C(F)(F)[C@@H]2C[C@H]32)n1` [Compound 26, 2-((3bS,4aR)-5,5-difluoro-3-(trifluoromethyl)-3b,4,4a,5-tetrahydro-1H-cyclopropa[3,4]cyclopenta[1,2-c]pyrazol-1-yl)-N—((S)-2-(3,5-difluorophenyl)-1-(6-(3-hydroxy-3-methylbut-1-yn-1-yl)-3-(3-oxo-2,3-dihydro-[1,2,4]triazolo[4,3-a]pyridin-6-yl)pyridin-2-yl)ethyl)acetamide], in the series with HIV-IIIb, the inhibition at 0.2 µM stood at 84% and the inhibition at 2 µM was determined as 100%. This compound had a CC50 at 5 days in series [1] of 10 µM.
